The test system of the experiment is sepsis-induced acute renal failure. In words: Cecal ligation puncture (CLP) sepsis-induced acute renal failure in aged mice. It counts as in vivo, mouse. The following applies: for HPLC creatinine: mean±SE. The method, then:
Animal care followed NIH criteria for the care and use of laboratory animals in research. Young (7-8 weeks) and aged (42-44 weeks) male C57BL/6 mice [National Institutes of Health (NIH), Frederick, Md.] had free access to water and chow (NIH-07) Rodent chow, Zeigler Bros., Gardners, Pa.) before and after surgery.
Aged mice were anesthetized with 100 mg/kg ketamine, 10 mg/kg xylazine, and 1 mg/kg acepromazine IM. After laparotomy, a 5-0 silk ligature was placed 5 mm from the cecal tip. The cecum was punctured twice with a 21-gauge needle and gently squeezed to express a 1 mm column of fecal material. In sham operated animals, the cecum was located, but neither ligated nor punctured. The abdominal incision was closed in two layers with 6-0 nylon sutures. After surgery, one ml of pre-warmed normal saline was given IP. All animals received a broad spectrum antibiotic (imipenem/cilastatin; 25 mg/kg SC), then 1.5 ml of 3/4 saline was administered at 6 and 18 hr after surgery by SC injection. At the time of sacrifice, blood was collected from abdominal aorta for measurement of blood chemistries. The kidneys were harvested for histological and mechanistic studies.
Survival after surgery was assessed every 6 hr within the first 48 hr and then every 8 hr for 4 days. Antibiotic injection and fluid resuscitation were started 6 hr after CLP by SC injection, and then repeated every 12 hr for 4 days.
Animals received 0.4 ml of Ringers lactate (RL) [130 mM Na+, 4 mM K+, 2.7 mM Ca+, 109 mM Cl^−, and 28 mM lactate] or a similar volume of freshly-made Ringers ethyl pyruvate (EP) where EP (Sigma) was substituted for sodium lactate. A single dose was injected IP at 0, 6, or 12 hr after CLP surgery.
Serum levels of blood urea nitrogen (BUN), aspartate transaminase (AST), alanine transaminase (ALT), amylase, creatine kinase (CK) and lactate dehydrogenase (LDH) were measured using an autoanalyzer (Hitachi 917, Boehringer Mannheim, Indianapolis, MN). Serum creatinine were measured by a picric acid-based colorimetric kinetic autoanalyzer (Astra 8 autoanalyzer; Beckman Instruments, Fullerton, Calif.). Serum […] was also measured by high-performance liquid chromatography (HPLC) Johns et al., B Biomed. Sci. Appl. 759:343 (2001)). Acetonitrile was added to serum, centrifuged, and the supernatant fraction was dried, resuspended in 5 mM sodium acetate pH 5.1, and chromatrographed isocratically on a PRP-X200 cation exchange column (Hamilton, Reno Nev.) and detected by UV absorbance at 234 nm (Agilent Technologies, Palo Alto, Calif.).
10% Formalin-fixed and paraffin-embedded kidney sections were stained with periodic acid-Schiff reagent (PAS) or naphthol AS-D chloroacetate esterase (Sigma; St. Louis, Mo.). Histological changes in the cortex and in the outer stripe of the outer medulla (OSOM) were assessed by quantitative measurements of tissue damage. Tubular damage was defined as tubular epithelial swelling, loss of brush border, vacuolar degeneration, necrotic tubules, cast formation, and desquamation. The degree of kidney damage was estimated at 400× magnification using 5 randomly selected fields for each animal by the following criteria: 0, normal; 1, areas of damage <25% of tubules; 2, damage involving 25-50% of tubules, 3, damage involving 50 to 75% of tubules; 4, 75-100% of the area being affected.
All data are expressed as means±SE. Differences between groups were examined for statistical significance by ANOVA with a multiple comparison correction (StatView 4.5, Berkeley, Calif.; or SigmaStat 2.0, SPSS, San Rafael, Calif.). A P value <0.05 was accepted as statistically significant.

Where only a bound is given, the exact number is not on record here.

Regarding `CCOC(=O)C(C)=O` [EP, ethyl pyruvate], the “tubular damage in cortex and OSOM” value (EP at 0, 6 or 12 hr after CLP, measured at 24 hr) is “significantly reduced the tubular damage”. The compound further came in with an HPLC creatinine (higher dose (40 mg/kg) EP, single IP dose delayed until 6 hr after surgery) of 0.13 ± 0.01 mg/dL; an HPLC creatinine (higher dose (40 mg/kg) EP, single IP dose delayed until 12 hr after surgery) of 0.17 ± 0.03 mg/dL; an HPLC creatinine (single IP dose 8 mg/kg EP after CLP surgery (0 hr), RL vehicle 0.33±0.07 mg/dl) of 0.17 ± 0.02 mg/dL; an HPLC creatinine (single IP dose 40 mg/kg EP after CLP surgery (0 hr), RL vehicle 0.33±0.07 mg/dl) of 0.14 ± 0.02 mg/dL. Moreover, the “renal injury as measured by BUN or HPLC creatinine” value (single dose of either 8 or 40 mg/kg EP after surgery, vs. RL) is reported as “significantly prevented the renal injury”. For the same compound, the acute renal failure result (summary statement referring to Example 1) was “inhibits acute renal failure”. In addition, the “therapeutic window for sepsis-induced acute renal failure” value (treatment start after CLP surgery) is ≥ 12 h. The “amount of protection for tubular injury score” value (without much change with delayed treatment (up to 12 hr)) is recorded as 60-80%.

Source of the values: patent US20040068006A1, “Method for preventing acute renal failure” (Critical Therapeutics, Inc., priority 2001, published 2004).
